This is an account of results in US7998998B2, “Therapeutic substituted lactams” (Allergan, Inc., priority 2007, dated 2011).

Experiment [1] deals with T1, EP4 (Homo sapiens, UniProt P35408). Kind of experiment: EP4 flipr functional assay. The format is cell-based. From the text:
(§1) U.S. patent application Ser. No. 11/553,143, filed on Oct. 26, 2006, incorporated by reference herein, describes the methods used to obtain the in vitro data in the table below.

Experiment [2] addresses T2, EP2 (Homo sapiens, UniProt P43116). Kind of experiment: EP2 flipr functional assay. The format is cell-based.
From the text: as §1

The target in experiment [3] is T1, EP4. Kind of experiment: EP4 binding (KI).
From the text: as §1

The target of experiment [4] is T2, EP2. Kind of experiment: EP2 binding (KI).
From the text: as §1

Experiment [5] has as its target T2, EP2. Kind of experiment: EP2 cAMP assay. It counts as cell-based.
From the text: as §1

A further experiment concerns the target T3, hDP (Homo sapiens, UniProt Q13258).
T3 sequence (Q13258 1-359): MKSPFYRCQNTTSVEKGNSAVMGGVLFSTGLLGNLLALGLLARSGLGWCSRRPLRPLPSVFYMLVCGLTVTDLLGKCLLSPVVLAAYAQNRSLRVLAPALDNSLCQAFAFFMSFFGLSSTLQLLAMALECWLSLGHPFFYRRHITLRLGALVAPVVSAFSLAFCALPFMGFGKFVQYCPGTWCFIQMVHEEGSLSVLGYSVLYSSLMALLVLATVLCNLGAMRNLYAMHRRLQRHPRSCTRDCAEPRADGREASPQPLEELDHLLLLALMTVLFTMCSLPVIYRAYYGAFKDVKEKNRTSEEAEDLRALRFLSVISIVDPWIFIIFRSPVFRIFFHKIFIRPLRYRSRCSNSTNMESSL
The experiment can be described thus: Other receptors functional assay, hDP. The format is cell-based.
From the text: as §1

Each structure is given as a SMILES string. Where only a bound is given, the exact number is not on record here.

T1 sequence (P35408 whole entry): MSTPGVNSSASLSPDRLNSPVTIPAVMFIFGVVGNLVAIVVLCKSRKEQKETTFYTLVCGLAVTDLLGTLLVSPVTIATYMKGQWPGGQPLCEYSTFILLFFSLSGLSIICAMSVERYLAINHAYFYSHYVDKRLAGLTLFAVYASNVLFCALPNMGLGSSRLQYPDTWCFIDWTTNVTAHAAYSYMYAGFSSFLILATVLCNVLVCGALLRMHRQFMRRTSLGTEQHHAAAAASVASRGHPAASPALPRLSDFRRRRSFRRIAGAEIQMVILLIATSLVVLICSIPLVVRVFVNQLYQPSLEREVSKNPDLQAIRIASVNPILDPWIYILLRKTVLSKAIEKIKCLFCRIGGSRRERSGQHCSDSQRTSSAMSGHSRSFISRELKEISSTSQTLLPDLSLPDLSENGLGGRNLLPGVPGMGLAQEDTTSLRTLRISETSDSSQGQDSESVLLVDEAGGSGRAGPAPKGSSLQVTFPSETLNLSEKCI
T2 sequence (P43116 whole entry): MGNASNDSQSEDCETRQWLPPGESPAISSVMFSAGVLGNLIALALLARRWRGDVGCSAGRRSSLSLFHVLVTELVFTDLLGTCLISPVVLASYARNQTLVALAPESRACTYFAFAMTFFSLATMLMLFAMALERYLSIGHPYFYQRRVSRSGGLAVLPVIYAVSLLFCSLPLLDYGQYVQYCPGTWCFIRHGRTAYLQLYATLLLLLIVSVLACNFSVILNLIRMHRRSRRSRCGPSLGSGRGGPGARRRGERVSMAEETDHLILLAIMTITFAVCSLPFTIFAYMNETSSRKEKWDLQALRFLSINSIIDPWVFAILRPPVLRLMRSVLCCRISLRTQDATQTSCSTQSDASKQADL

`O=C(O)c1ccc(COC[C@H]2CCC(=O)N2CCc2cc(Cl)cc(Cl)c2)s1` [(R)-5-(((1-(3,5-dichlorophenethyl)-5-oxopyrrolidin-2-yl)methoxy)methyl)thiophene-2-carboxylic acid]: the figures for the EC50 on EP4 [1], on EP2 [2] and at EP2 [5] were greater than 10 µM, greater than 10 µM and 0.004 µM, respectively. Also, the values for the inhibitory constant (Ki) at EP4 [3] and at EP2 [4] were 7.99 µM and 0.159 µM, respectively.
As to `O=C(O)c1ccc(CCC[C@H]2CCC(=O)N2CCc2cc(Cl)cc(Cl)c2)s1` [(S)-5-(3-(1-(3,5-dichlorophenethyl)-5-oxopyrrolidin-2-yl)propyl)thiophene-2-carboxylic acid], the EC50 on EP2 [2] came out at 8.41 µM; at hDP, 6.22 µM; at EP2 [5], 0.0022 µM. The Ki at EP4 [3] was greater than 10 µM; on EP2 [4], 0.024 µM.
